Experimental findings from patent US20220033434A1, “ANDROGEN RECEPTOR NUCLEIC ACIDS AND USES THEREOF” (Avidity Biosciences, Inc., priority 2016, published 2022) are described below.

Holding throughout (format): cell-based, human
One series deals with AR FL(1). The series is described as follows: AR protein knock-down by Western blot after siRNA transfection in 22RV1 cells: AR FL(1). Particulars: 5 nM siRNA, 50 h post transfection, compared to controls. The method in brief:
(§1)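 siRNAs were forward-transfected with a lipid reagent at 5 nM final; LNCaP cells (full-length AR T877A) were harvested 72 h later and 22RV1 cells (AR splice variants) 50 h later. Lysates (30 ug protein/lane) were immunoblotted with an N-terminal AR antibody, α-tubulin as control, and quantified by infrared imaging.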
(In general: Immunoblotting shows a protein as a band on a membrane.)

The test system of series [1] is AR mRNA. The series is described as follows: AR mRNA IC50 and maximal KD, siRNA at various concentrations, C4-2 cells, qPCR probes exon junctions 1/2 or 4/5. The protocol: (§2) Focusing on siRNAs targeting AR sequences exons 1 and 2, the ability of these siRNAs to downregulate AR mRNA at a concentration of 5 nM was determined by RT-qPCR. For this purpose, siRNAs were transfected into 22RV1 and LNCaP cells as described above. At 24 hrs post-transfection, RNA was harvested from cells using a Qiagen RNeasy® Plus Mini Kit or Stratec InviTrap® RNA Cell HTS96 kit. The concentration of each isolated RNA was determined via A260 measurement using a NanoDrop spectrophotometer. RNA samples were reverse transcribed to cDNA using the High Capacity RNA to cDNA Kit (Life Technologies) according to the manufacturer's instructions. cDNA samples were then quantified by qPCR using AR-specific probes and results normalized to either endogenous β-actin or PPIB using the standard 2^−ΔΔCt method. These studies identified 6 siRNAs that at a concentration of 5 nM down regulated AR mRNA in 22RV1 and LNCaP cells by more than 80% compared to controls (Table 4).
(§3) To determine the concentration required to reduce AR expression by 50% (IC50) and maximal KD activity, these siRNAs were transfected into LNCaP, C4-2, and 22RV1 cells at various concentrations starting at 100 nM. C4-2 (MD Anderson) is an LNCaP subline that has been selected for resistance against clinically used AR antagonists (Wu et al., “Derivation of androgen-independent human LNCaP prostatic cancer cell sublines: Role of bone stromal cells,” International J Cancer 1994; 57:406-412). Cells were harvested 48 h post-transfection; RNA was prepared and analyzed as stated above. For these experiments, specific AR qPCR probes located at the exon junctions 1/2 or 4/5 were used that recognize most mRNAs of relevant AR isoforms or primarily full length AR mRNA, respectively. All tested siRNAs lowered AR expression with subnanomolar potency to 70% in 22RV1 cells and to ≥90% in LNCaP and C4-2 cells (Table 5). […]
A general note: Real-time PCR tracks product formation cycle by cycle.

Series [2] has as its system AR mRNA. The series is described as follows: AR mRNA downregulation by RT-qPCR at 5 nM siRNA in 22RV1 cells. As to conditions: 24 hrs post-transfection. The protocol:
as §2

In series [3] the test system is AR mRNA. The series can be described thus: AR mRNA IC50 and maximal KD, siRNA at various concentrations, 22RV1 cells, qPCR probes exon junctions 1/2 or 4/5. The protocol: as §2, §3
In series [4] the test system is AR FL (full length AR T877A LBD mutant). The series is described as follows: AR protein knock-down by Western blot after siRNA transfection in LNCaP cells: AR FL. As to conditions: 5 nM siRNA, 72 h post transfection, compared to controls. The method in brief:
as §1

In series [5] the test system is AR target gene expression (PSA, PSMA). The series is described as follows: AR, PSA and PSMA levels by qRT-PCR in hormone therapy resistant 22RV1 cells, siRNA versus Enzalutamide. As to conditions: 5 nM siRNA (24 h + 20 h DMSO) or 10 μM Enzalutamide 20 hours. The text has this:
(§4) To monitor regulation of AR target genes as a consequence of siRNA-mediated changes in AR […], LNCaP cells were transfected with various concentrations of XD-01829 (also referred to as XD-0189), and the levels of AR and the Prostate Specific Antigen (PSA) monitored by qRT-PCR. PSA expression is positively regulated by AR and used clinically as a biomarker for AR activity in prostate cancer patients. […] A similar experiment compared the expression of AR, PSA and the Prostate-Specific Membrane Antigen (PSMA) in response to treatment with the AR antagonist Enzalutamide or AR siRNA XD-01829 (or XD-0189). PSMA expression is negatively regulated by AR. For these experiments, hormone therapy resistant 22RV1 cells were transfected with 5 nM of either a scrambled control siRNA (negative control, Enzalutamide group) or XD-01829 (or XD-0189) as described above. After incubation for 24 hours, the negative control and XD-01829 (or XD-0189) groups were treated with DMSO, and the enzalutamide group with 10 μM Enzalutamide. After incubation for 20 hours RNAs were prepared as outlined above and AR, PSA, and PSMA levels evaluated by qRT-PCR.

Series [6] has as its system Prostate Specific Antigen (PSA). The series is described as follows: AR and PSA levels by qRT-PCR after siRNA transfection in LNCaP cells. Particulars: various concentrations, 3 days after transfection.
From the text: as §4

The next series has as its system AR-SV(2). The series can be described thus: AR protein knock-down by Western blot after siRNA transfection in 22RV1 cells: AR-SV(2). Particulars: 5 nM siRNA, 50 h post transfection, compared to controls. In short, it runs like this:
as §1

In series [7] the test system is AR mRNA. The series can be described thus: AR mRNA IC50 and maximal KD, siRNA at various concentrations, LNCaP cells, qPCR probes exon junctions 1/2 or 4/5. As to the method:
as §2, §3

A further series concerns AR-SV(3). The series can be described thus: AR protein knock-down by Western blot after siRNA transfection in 22RV1 cells: AR-SV(3). Particulars: 5 nM siRNA, 50 h post transfection, compared to controls. The method in brief:
as §1

The test system of series [8] is AR mRNA. The series can be described thus: AR mRNA downregulation by RT-qPCR at 5 nM siRNA in LNCaP cells. Particulars: 24 hrs post-transfection. The protocol: as §2
[9] abbreviates: AR qPCR probe at exon junction 1/2, 48 h post-transfection.
Setting [10] is: AR qPCR probe at exon junction 4/5, 48 h post-transfection.

In the oligonucleotide strings, read from the 5' end, every base follows the letter of its sugar. An asterisk marks phosphorothioate; unmarked linkages are phosphodiester. Other units and linkages are bracketed, terminal groups are in braces. A string of capitals states the bases alone. d = 2'-deoxy (DNA); m = 2'-O-methyl; f = 2'-fluoro

Consider “XD-01829: AR siRNA with chemical modification, Id # 2822; sense X05353 (SEQ ID NO: 183), antisense X05354 (SEQ ID NO: 184) (sense mGmUfGmUfCmAfCmUfAmUfGmGfAmGfCmUfCmUfCdT*dT; antisense fGfAmGfAmGfCmUfCmCfAmUfAmGfUmGfAmCfAmCdT*dT)”, for which the “% KD AR Protein 22RV1 AR FL(1)” value with AR FL(1) was 97%. The “max KD (%), C4-2, Exon 1/2” value with AR mRNA [1] (setting [9]) was 94.7%. The IC50 in the series on AR mRNA [1] (AR qPCR probe at exon junction 1/2, 48 h post-transfection, read-out: IC50 (nM), C4-2, Exon 1/2) was found to be 0.013 nM; in the series with AR mRNA [1] (AR qPCR probe at exon junction 4/5, 48 h post-transfection, read-out: IC50 (nM), C4-2, Exon 4/5), 0.011 nM; in the series on AR mRNA [3] (AR qPCR probe at exon junction 1/2, 48 h post-transfection, read-out: IC50 (nM), 22RV1, Exon 1/2) it was 0.038 nM; with AR mRNA [3] (AR qPCR probe at exon junction 4/5, 48 h post-transfection, read-out: IC50 (nM), 22RV1, Exon 4/5) it was 0.018 nM; in the series on AR mRNA [7] (AR qPCR probe at exon junction 1/2, 48 h post-transfection, read-out: IC50 (nM), LNCaP, Exon 1/2), 0.016 nM; in the series with AR mRNA [7] (AR qPCR probe at exon junction 4/5, 48 h post-transfection, read-out: IC50 (nM), LNCaP, Exon 4/5), 0.016 nM. The “max KD (%), C4-2, Exon 4/5” value in the series with AR mRNA [1] (setting [10]) was 92.6%. Further, the “% KD AR RNA 22RV1” value with AR mRNA [2] came out at 86%. The “max KD (%), 22RV1, Exon 1/2” value in the series with AR mRNA [3] (setting [9]) turned out to be 72.1%. Besides, in the series on AR mRNA [3] (setting [10]), the “max KD (%), 22RV1, Exon 4/5” value was 68.1%. Further, the “% KD AR Protein LNCaP AR FL” value in series [4] was 91%. For the same substance, the “regulation of AR target gene expression (PSA, PSMA)” value in [5] was “regulate AR target gene expression”. Moreover, the “AR and PSA levels” value in [6] is “highly correlated”. In addition, the “% KD AR Protein 22RV1 AR-SV(2)” value in the series with AR-SV(2) came out at 99%. For the same substance, in the series on AR mRNA [7] (setting [9]), the “max KD (%), LNCaP, Exon 1/2” value is listed as 94.2%. Moreover, in the series on AR mRNA [7] (setting [10]), the “max KD (%), LNCaP, Exon 4/5” value was 92.3%. In addition, the “% KD AR Protein 22RV1 AR-SV(3)” value with AR-SV(3) amounted to 97%. The “% KD AR RNA LNCaP” value with AR mRNA [8] is 92%.
